A value given as a limit tells only on which side of the number the result lay.

IDH1 R132H, sequence (O75874 whole entry R132H): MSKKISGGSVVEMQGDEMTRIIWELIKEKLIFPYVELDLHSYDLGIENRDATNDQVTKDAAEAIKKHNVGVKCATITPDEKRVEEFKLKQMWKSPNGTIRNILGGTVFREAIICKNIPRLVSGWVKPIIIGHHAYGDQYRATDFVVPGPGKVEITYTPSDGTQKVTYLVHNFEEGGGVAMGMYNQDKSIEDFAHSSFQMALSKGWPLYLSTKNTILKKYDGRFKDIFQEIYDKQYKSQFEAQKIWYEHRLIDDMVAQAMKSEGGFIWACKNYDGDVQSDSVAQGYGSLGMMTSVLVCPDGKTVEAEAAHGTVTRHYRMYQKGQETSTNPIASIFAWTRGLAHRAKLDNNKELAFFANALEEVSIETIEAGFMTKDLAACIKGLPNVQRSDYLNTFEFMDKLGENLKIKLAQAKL

For the first test, the target named is IDH1 R132H (Homo sapiens, UniProt O75874, R132H). As to the kind of experiment: Assay for IDH1 R132H inhibitors (NADPH/aKG, resazurin detection). It is filed as biochemical. As to conditions: Table 3; enzyme assay, 50 minutes at room temperature; read-out: IC50 (IDH1 R132H Inhibition). The method, boiled down:
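Compound added to substrate mix (8 uM NADPH, 2 mM aKG), then enzyme mix (0.2 μg/ml IDH1 R132H); 50 min RT in 20 mM Tris pH 7.5, 150 mM NaCl, 10 mM MgCl2, 0.03% BSA. Resazurin detection mix (30 μM) 5 min RT; resorufin fluorescence Ex544/Em590.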
A word on the IC50: it is the point on the concentration scale where inhibition reaches its midpoint. Consider `COCCC(=O)N1CCN(c2nc(C(C)C)c(-c3cccc4ccccc34)cc2C#N)C[C@H]1C` [Compound 217, (R)-6-isopropyl-2-(4-(3-methoxypropanoyl)-3-methylpiperazin-1-yl)-5-(naphthalen-1-yl)nicotinonitrile], for which the half-maximal inhibitory concentration (IC50) is 1000 to 5000 nM.

Take `CC(C)c1cc(-c2cccc(F)c2)c(C#N)c(N2CCN(C(=O)c3ccoc3)C(C)C2)n1` (centres unmarked) [Compound 128, 4-(3-fluorophenyl)-2-(4-(furan-3-carbonyl)-3-methylpiperazin-1-yl)-6-isopropylnicotinonitrile]: the concentration for half-maximal inhibition (IC50) lay within 1000 to 5000 nM.

For the compound `CC[C@@H]1CN(c2nc(C(C)C)c(-c3ccccc3)cc2C#N)CCN1C(=O)Cc1cccs1` [Compound 174, (R)-2-(3-ethyl-4-(2-(thiophen-2-yl)acetyl)piperazin-1-yl)-6-isopropyl-5-phenylnicotinonitrile], the 50% inhibitory concentration (IC50) is 1000 to 5000 nM.

Take `CCOc1ccccc1-c1cc(C#N)c(N2CCN(C(=O)c3ccco3)C[C@@H]2C)nc1C(C)C` [Compound 184, (S)-5-(2-ethoxyphenyl)-2-(4-(furan-2-carbonyl)-2-methylpiperazin-1-yl)-6-isopropylnicotinonitrile]: the IC50 lay within 1000 to 5000 nM.

On to `CC(C)c1cc(-c2ccccc2)c(C#N)c(N2CCN(C(=O)c3ccoc3)[C@@H](C)C2)n1` [Compound 132, (S)-2-(4-(furan-3-carbonyl)-3-methylpiperazin-1-yl)-6-isopropyl-4-phenylnicotinonitrile], for which the concentration for half-maximal inhibition (IC50) lay within 1000 to 5000 nM.

Regarding `COCCC(=O)N1CCN(c2nc(C(C)C)c(-c3ccc(C(F)(F)F)cc3)cc2C#N)C[C@H]1C(C)C` [Compound 197, (R)-6-isopropyl-2-(3-isopropyl-4-(3-methoxypropanoyl)piperazin-1-yl)-5-(4-(trifluoromethyl)phenyl)nicotinonitrile], the IC50 lay in the range of 1000 to 5000 nM.

With `COCCC(=O)N1CCN(c2nc(C(C)C)c(-c3cccc(C)c3)cc2C#N)C[C@H]1C` [Compound 193, (R)-6-isopropyl-2-(4-(3-methoxypropanoyl)-3-methylpiperazin-1-yl)-5-m-tolylnicotinonitrile], the half-maximal inhibitory concentration (IC50) lay within 1000 to 5000 nM.

Take `CC(C)c1cc(-c2ccccc2)c(C#N)c(N2CCN(C(=O)c3ccoc3)CC2c2ccccc2)n1` (centres unmarked) [Compound 160, 2-(4-(furan-3-carbonyl)-2-phenylpiperazin-1-yl)-6-isopropyl-4-phenylnicotinonitrile]: the IC50 was 5000 to 15000 nM.

In the case of `N#Cc1cc(-c2ccccc2)c(-c2ccccc2)nc1N1CCN(C(=O)Cc2ccccc2)CC1` [Compound 123, 5,6-diphenyl-2-(4-(2-phenylacetyl)piperazin-1-yl)nicotinonitrile], the concentration for half-maximal inhibition (IC50) lay in the range of 5000 to 15000 nM.

As to `Cc1cccc(-c2cc(C#N)c(N3CCN(C(=O)c4ccco4)[C@H](C)C3)nc2C(C)C)c1` [Compound 190], the half-inhibitory concentration (IC50) lay in the range of 5000 to 15000 nM.

Take `CC[C@@H]1CN(c2nc(C(C)C)c(-c3ccccc3)cc2C#N)CCN1C(=O)c1ccco1` [Compound 172, (R)-2-(3-ethyl-4-(furan-2-carbonyl)piperazin-1-yl)-6-isopropyl-5-phenylnicotinonitrile]: the concentration for half-maximal inhibition (IC50) fell in the range of 5000 to 15000 nM.

The test is the same for the next values; noted with them: enzyme assay of Example 12; read-out: IDH1R132H IC50.
`N#Cc1cc(-c2ccc3[nH]ncc3c2)c(C2CC2)nc1N1CCN(C(=O)CC(F)(F)F)[C@H](C2CC2)C1` [Compound 552]: the IC50 is less than 500 nM.

With `COCCC(=O)N1CCN(c2nc(C3CC3)c(-c3cnn(Cc4ccccc4)c3)c(C)c2C#N)C[C@H]1C` [Compound 358, (R)-5-(1-benzyl-1H-pyrazol-4-yl)-6-cyclopropyl-2-[4-(3-methoxy-propionyl)-3-methyl-piperazin-1-yl]-4-methyl-nicotinonitrile], the IC50 was less than 500 nM.

For the compound `N#Cc1cc(-c2cccc3cnccc23)c(C2CC2)nc1N1CCN(C(=O)CC(F)(F)F)C(C(F)(F)F)C1` (centres unmarked) [Compound 399, 6-cyclopropyl-5-(isoquinolin-5-yl)-2-(3-(trifluoromethyl)-4-(3,3,3-trifluoropropanoyl)piperazin-1-yl)nicotinonitrile], the half-inhibitory concentration (IC50) was 500 to 1000 nM.

Consider `COCCC(=O)N1CCN(c2nc(C3CC3)c(-c3cccnc3F)c(C)c2C#N)C[C@H]1C` [Compound 369, (R)-2-cyclopropyl-2′-fluoro-6-[4-(3-methoxy-propionyl)-3-methyl-piperazin-1-yl]-4-methyl-[3,3′]bipyridinyl-5-carbonitrile], for which the IC50 is 500 to 1000 nM.

As to `C=Cc1ccnc(Nc2cc(C#N)c(N3CCN(C(=O)/C=C/CCO)[C@H](C4CC4)C3)nc2C2CC2)c1` [Compound 798, (R,E)-6-cyclopropyl-2-(3-cyclopropyl-4-(5-hydroxypent-2-enoyl)piperazin-1-yl)-5-((4-vinylpyridin-2-yl)amino)nicotinonitrile], the IC50 was less than 500 nM.

For the compound `N#Cc1cc(-c2cccc3cnccc23)c(C2CC2)nc1N1CCN(C(=O)CCC=O)[C@H](C2CC2)C1` [Compound 519, (R)-6-cyclopropyl-2-(3-cyclopropyl-4-(4-oxobutanoyl)piperazin-1-yl)-5-(isoquinolin-5-yl)nicotinonitrile], the IC50 is 500 to 1000 nM.

On to `COCCC(=O)N1CCN(c2nc(C3CC3)c(-c3ccnn3C)cc2C#N)C[C@H]1C` [Compound 371, (R)-6-cyclopropyl-2-[4-(3-methoxy-propionyl)-3-methyl-piperazin-1-yl]-5-(2-methyl-2H-pyrazol-3-yl)-nicotinonitrile], for which the 50% inhibitory concentration (IC50) was in the range of 500 to 1000 nM.

As for `N#Cc1cc(-c2cccc3cnccc23)c(C2CC2)nc1N1CCN(C(=O)C2CC2)CC(F)C1` (centres unmarked) [Compound 477, 2-(4-(cyclopropanecarbonyl)-6-fluoro-1,4-diazepan-1-yl)-6-cyclopropyl-5-(isoquinolin-5-yl)nicotinonitrile], the IC50 was in the range of 500 to 1000 nM.

As to `C[C@@H]1CN(c2nc(C3CC3)c(-c3ccc(C#N)nc3)cc2C#N)CCN1C(=O)C1CC1` [Compound 583, (R)-6-(4-(cyclopropanecarbonyl)-3-methylpiperazin-1-yl)-2-cyclopropyl-3,3′-bipyridine-5,6′-dicarbonitrile], the IC50 was in the range of 500 to 1000 nM.

As for `COCCC(=O)N1CCN(c2nc(C3CC3)c(OCc3cccc(N)c3)cc2C#N)C[C@H]1C` [Compound 341], the IC50 is less than 500 nM.

Consider `N#Cc1cc(-c2cncc(C(N)=O)c2)c(C2CC2)nc1N1CCN(C(=O)CC(F)(F)F)[C@H](C2CC2)C1` [Compound 540, (R)-5′-cyano-2′-cyclopropyl-6′-(3-cyclopropyl-4-(3,3,3-trifluoropropanoyl)piperazin-1-yl)-[3,3′-bipyridine]-5-carboxamide], for which the IC50 is less than 500 nM.

In the case of `COCCC(=O)N1CCN(c2nc(C3CC3)c(-c3cccc(OC)c3F)c(C)c2C#N)C[C@H]1C` [Compound 324, (R)-6-cyclopropyl-5-(2-fluoro-3-methoxy-phenyl)-2-[4-(3-methoxy-propionyl)-3-methyl-piperazin-1-yl]-4-methyl-nicotinonitrile], the concentration for half-maximal inhibition (IC50) was 500 to 1000 nM.

On to `COCCC(=O)N1CCN(c2nc(C3CC3)c(-c3ccccc3COC)c(C)c2C#N)C[C@H]1C` [Compound 348, (R)-6-cyclopropyl-5-(2-methoxymethyl-phenyl)-2-[4-(3-methoxy-propionyl)-3-methyl-piperazin-1-yl]-4-methyl-nicotinonitrile], for which the concentration for half-maximal inhibition (IC50) was less than 500 nM.

For `COCCC(=O)N1CCN(c2nc(C3CC3)c(-c3cc(Cl)nc(Cl)c3)cc2C#N)C[C@H]1C` [Compound 586, (R)-2′,6′-dichloro-2-cyclopropyl-6-(4-(3-methoxypropanoyl)-3-methylpiperazin-1-yl)-[3,4′-bipyridine]-5-carbonitrile], the IC50 is less than 500 nM.

Turning to `C=Cc1cc(-c2c(C3CC3)nc(N3CCN(C(=O)CCCCC)[C@H](C4CC4)C3)c(C#N)c2C)ccn1` [Compound 827, (R)-2-cyclopropyl-6-(3-cyclopropyl-4-hexanoylpiperazin-1-yl)-4-methyl-2′-vinyl-3,4′-bipyridine-5-carbonitrile], the concentration for half-maximal inhibition (IC50) was less than 500 nM.

As to `COCCC(=O)N1CCN(c2nc(C3CC3)c(-c3ccc(OCC4CC4)cc3)c(C)c2C#N)C[C@H]1C` [Compound 336, (R)-6-cyclopropyl-5-(4-cyclopropylmethoxy-phenyl)-2-[4-(3-methoxy-propionyl)-3-methyl-piperazin-1-yl]-4-methyl-nicotinonitrile], the half-inhibitory concentration (IC50) lay in the range of 500 to 1000 nM.

Regarding `COCCC(=O)N1CCN(c2nc(C3CC3)c(-c3ccc4cn[nH]c4c3)cc2C#N)C[C@H]1C` [Compound 385, (R)-6-cyclopropyl-5-(1H-indazol-6-yl)-2-(4-(3-methoxypropanoyl)-3-methylpiperazin-1-yl)nicotinonitrile], the IC50 was 500 to 1000 nM.

On to `COCCC(=O)N1CCN(c2nc(C3CC3)c(-c3c(C)cccc3C)cc2C#N)C[C@H]1C` [Compound 357, (R)-6-cyclopropyl-5-(2,6-dimethyl-phenyl)-2-[4-(3-methoxy-propionyl)-3-methyl-piperazin-1-yl]-nicotinonitrile], for which the IC50 fell in the range of 500 to 1000 nM.

Regarding `CN(C)c1nccc(-c2cc(C#N)c(N3CCN(C(=O)CC(F)(F)F)[C@H](C4CC4)C3)nc2C2CC2)n1` [Compound 521, (R)-6-cyclopropyl-2-(3-cyclopropyl-4-(3,3,3-trifluoropropanoyl)piperazin-1-yl)-5-(2-(dimethylamino)pyrimidin-4-yl)nicotinonitrile], the IC50 was less than 500 nM.

For the compound `COCCC(=O)N1CCN(c2nc(C3CC3)c(-c3cccc(NC(=O)/C=C/CN(C)C)c3)cc2C#N)C[C@H]1C` [Compound 441, (R,E)-N-(3-(5-cyano-2-cyclopropyl-6-(4-(3-methoxypropanoyl)-3-methylpiperazin-1-yl)pyridin-3-yl)phenyl)-4-(dimethylamino)but-2-enamide], the half-maximal inhibitory concentration (IC50) was 500 to 1000 nM.

With `Cc1c(C#N)c(N2CCN(C(=O)C3CC3)[C@H](C3CC3)C2)nc(C2CC2)c1-c1cn[nH]c1` [Compound 478, (R)-2-(4-(cyclopropanecarbonyl)-3-cyclopropylpiperazin-1-yl)-6-cyclopropyl-4-methyl-5-(1H-pyrazol-4-yl)nicotinonitrile], the IC50 lay within 500 to 1000 nM.

For the origin of these results see US9856279B2 (AGIOS PHARMACEUTICALS, INC, priority 2011, dated 2018).
